Consider 4 compounds from patent US20070197632A1, “Aminocyclohexyl ether compounds and uses thereof” (Cardiome Pharma Corp, priority 2003, published 2007).

The subject of one data set is conscious rats. The settings on record: rat, in vivo, iv.
Data set [1] has as its system sustained AF maintained during continuous vagal nerve stimulation. Description: Canine vagal-AF model. It counts as in vivo, dog. The settings on record: anesthetized dogs, IV. The procedure: St.-Georges et al., 1997). Dogs are ventilated mechanically with room air supplemented with oxygen via an endotracheal tube at 20 to 25 breaths/minute with a tidal volume obtained from a nomogram. […] Catheters are inserted into the femoral artery for blood pressure recording and blood gas measurement, and into both femoral veins for drug administration and venous sampling. […] Body temperature is maintained at 37-40° C. with a heating blanket. The heart is exposed via a medial thoracotomy and a pericardial cradle is created. […] Drug effects to terminate sustained AF maintained during continuous vagal nerve stimulation are assessed. […] The vagal stimulation voltage is adjusted under control conditions, and then readjusted after each treatment to maintain the same bradycardic effect. […] Diastolic threshold and ERP are determined in duplicate and averaged to give a single value. […] The interval between the stimulus artefact and the peak of the local electrogram is measured as an index of conduction velocity. […] The stimulus voltage-heart rate relationship for vagal nerve stimulation is determined under control conditions in most experiments. […] After the termination of AF, the diastolic threshold and ERP of the atrium and ventricle are determined. […] Group data are expressed as the mean±SEM. […]

As to `COc1ccc(CCO[C@H]2CCCCC2N2CC[C@H](O)C2)cc1OC.Cl` (stereo partly drawn) [Compound 5, (1R,2R)/(1S,2S)-2-[(3s)-Hydroxypyrrolidinyl]-1-(3,4-dimethoxyphenethoxy)-cyclohexane monohydrochloride], in the data set with conscious rats, the convulsion dose was found to be 64 µmol/kg/min.

For the compound `COc1ccc(CCO[C@@H]2CCCC[C@H]2N2CC[C@H](O)C2)cc1OC.Cl` [Compound 6, (1R,2R)-2-[(3S)-Hydroxypyrrolidinyl]-1-(3,4-dimethoxyphenethoxy)-cyclohexane monohydrochloride], the convulsion dose with conscious rats is 64 µmol/kg/min. On the same count and under the same terms, next, `COc1ccc(CCO[C@H]2CCCC[C@@H]2N2CC[C@H](O)C2)cc1OC.Cl` [Compound 7, (1S,2S)-2-[(3S)-Hydroxypyrrolidinyl]-1-(3,4-dimethoxyphenethoxy)-cyclohexane monohydrochloride]: 64 µmol/kg/min. With `O=C(NCC1CCCCN1)c1cc(OCC(F)(F)F)ccc1OCC(F)(F)F` (centres unmarked) [Flecainide], in data set [1], the “Median dose required for termination of AF” value was 2.5 µmol/kg. In data set [1] (mean±SEM), the “Mean dose required for termination of AF” value came out at 4 ± 2 µmol/kg.
